Assay results as given in patent US11208412B2 (DAEGU-GYEONGBUK MEDICAL INNOVATION FOUNDATION, priority 2017, dated 2021).

How the values were obtained:
Assay in all cases: Kinase selectivity, DiscoverX scanMAX Kinase assay panel (% control)
Type in all cases: binding
[1] = target: T1, kinases of the scanMAX Kinase assay panel (Homo sapiens, UniProt Q9UL54); settings: kinase TAOK2; 1 uM in DMSO
T1 construct: purchased DiscoverX Co. (contract measurement) scanMAX Kinase assay panel
T1 sequence (Q9UL54 1-1235): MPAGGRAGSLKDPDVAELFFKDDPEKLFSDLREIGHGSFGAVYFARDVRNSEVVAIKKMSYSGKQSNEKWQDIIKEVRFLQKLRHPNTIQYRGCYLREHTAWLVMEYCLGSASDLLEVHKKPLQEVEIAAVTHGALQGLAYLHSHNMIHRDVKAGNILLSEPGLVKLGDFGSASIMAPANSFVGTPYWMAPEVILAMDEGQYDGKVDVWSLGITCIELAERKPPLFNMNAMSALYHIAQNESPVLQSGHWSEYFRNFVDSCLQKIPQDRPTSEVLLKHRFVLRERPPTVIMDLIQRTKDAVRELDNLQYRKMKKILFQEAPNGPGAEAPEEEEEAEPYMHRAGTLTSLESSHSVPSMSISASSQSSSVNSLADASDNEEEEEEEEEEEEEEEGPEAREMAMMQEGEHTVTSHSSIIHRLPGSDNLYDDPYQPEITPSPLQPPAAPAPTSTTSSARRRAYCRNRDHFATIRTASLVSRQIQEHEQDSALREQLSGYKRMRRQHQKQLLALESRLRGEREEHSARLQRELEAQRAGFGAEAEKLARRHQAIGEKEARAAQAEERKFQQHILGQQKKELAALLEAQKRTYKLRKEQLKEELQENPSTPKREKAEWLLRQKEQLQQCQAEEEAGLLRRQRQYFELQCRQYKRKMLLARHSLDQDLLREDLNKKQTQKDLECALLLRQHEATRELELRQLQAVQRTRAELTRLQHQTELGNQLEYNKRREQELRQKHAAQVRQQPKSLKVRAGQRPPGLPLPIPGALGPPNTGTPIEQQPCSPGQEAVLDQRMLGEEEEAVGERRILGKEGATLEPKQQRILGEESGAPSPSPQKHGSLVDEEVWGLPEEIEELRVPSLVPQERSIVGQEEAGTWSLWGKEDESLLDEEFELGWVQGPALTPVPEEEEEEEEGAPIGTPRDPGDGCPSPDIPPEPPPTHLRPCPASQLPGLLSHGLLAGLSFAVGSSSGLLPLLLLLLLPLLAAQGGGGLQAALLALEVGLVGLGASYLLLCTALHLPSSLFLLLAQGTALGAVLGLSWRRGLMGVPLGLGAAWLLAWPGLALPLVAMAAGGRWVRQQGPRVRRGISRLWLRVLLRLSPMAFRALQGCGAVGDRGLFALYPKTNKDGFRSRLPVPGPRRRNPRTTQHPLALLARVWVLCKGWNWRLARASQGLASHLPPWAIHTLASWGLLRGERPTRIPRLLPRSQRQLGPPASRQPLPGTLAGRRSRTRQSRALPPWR
In short: (§1)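 Single-point screen, 1 uM cpd in DMSO. % ctrl = (cpd − pos ctrl)/(neg ctrl − pos ctrl)×100; pos ctrl = 0%, DMSO neg ctrl = 100%. Hit cutoff <35%.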

[2] = target: T2, kinases of the scanMAX Kinase assay panel (Homo sapiens, UniProt Q96PY6); settings: NEK1; 1 uM
T2 construct: purchased DiscoverX Co. (contract measurement) scanMAX Kinase assay panel
T2 sequence (Q96PY6 1-1258): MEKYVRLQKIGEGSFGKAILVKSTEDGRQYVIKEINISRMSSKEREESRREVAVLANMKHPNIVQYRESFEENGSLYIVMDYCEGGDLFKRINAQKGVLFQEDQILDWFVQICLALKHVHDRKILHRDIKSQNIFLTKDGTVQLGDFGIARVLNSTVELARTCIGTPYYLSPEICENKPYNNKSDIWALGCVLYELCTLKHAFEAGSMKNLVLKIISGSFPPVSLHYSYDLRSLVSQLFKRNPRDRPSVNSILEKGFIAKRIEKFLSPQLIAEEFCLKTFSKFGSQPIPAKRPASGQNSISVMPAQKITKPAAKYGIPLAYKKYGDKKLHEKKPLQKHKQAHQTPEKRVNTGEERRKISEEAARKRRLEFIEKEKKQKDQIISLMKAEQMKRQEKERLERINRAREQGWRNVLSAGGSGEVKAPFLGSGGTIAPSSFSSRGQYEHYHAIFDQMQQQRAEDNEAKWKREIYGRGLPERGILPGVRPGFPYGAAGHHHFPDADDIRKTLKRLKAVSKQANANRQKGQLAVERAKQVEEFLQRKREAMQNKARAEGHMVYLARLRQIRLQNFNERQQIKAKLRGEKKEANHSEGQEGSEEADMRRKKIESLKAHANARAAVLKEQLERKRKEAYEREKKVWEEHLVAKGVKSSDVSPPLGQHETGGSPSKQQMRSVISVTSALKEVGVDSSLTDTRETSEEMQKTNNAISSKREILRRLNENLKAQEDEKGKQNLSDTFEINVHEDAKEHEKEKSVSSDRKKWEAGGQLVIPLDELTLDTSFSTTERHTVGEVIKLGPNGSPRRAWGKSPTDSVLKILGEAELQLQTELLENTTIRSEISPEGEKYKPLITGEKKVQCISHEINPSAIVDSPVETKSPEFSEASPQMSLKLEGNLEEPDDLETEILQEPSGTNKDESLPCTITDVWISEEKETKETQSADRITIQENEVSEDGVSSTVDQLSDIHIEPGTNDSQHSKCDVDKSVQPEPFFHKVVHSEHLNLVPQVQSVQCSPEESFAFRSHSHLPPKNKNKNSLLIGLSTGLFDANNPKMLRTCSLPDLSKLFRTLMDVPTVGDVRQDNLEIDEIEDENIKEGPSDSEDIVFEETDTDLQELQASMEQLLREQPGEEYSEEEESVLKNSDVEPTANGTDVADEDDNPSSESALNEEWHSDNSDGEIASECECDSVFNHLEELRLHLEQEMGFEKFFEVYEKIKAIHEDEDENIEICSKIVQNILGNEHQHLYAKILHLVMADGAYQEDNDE
In short: as §1

[3] = target: T3, kinases of the scanMAX Kinase assay panel (Homo sapiens, UniProt Q14012); settings: CAMK1; 1 uM
T3 construct: purchased DiscoverX Co. (contract measurement) scanMAX Kinase assay panel
T3 sequence (Q14012 whole entry): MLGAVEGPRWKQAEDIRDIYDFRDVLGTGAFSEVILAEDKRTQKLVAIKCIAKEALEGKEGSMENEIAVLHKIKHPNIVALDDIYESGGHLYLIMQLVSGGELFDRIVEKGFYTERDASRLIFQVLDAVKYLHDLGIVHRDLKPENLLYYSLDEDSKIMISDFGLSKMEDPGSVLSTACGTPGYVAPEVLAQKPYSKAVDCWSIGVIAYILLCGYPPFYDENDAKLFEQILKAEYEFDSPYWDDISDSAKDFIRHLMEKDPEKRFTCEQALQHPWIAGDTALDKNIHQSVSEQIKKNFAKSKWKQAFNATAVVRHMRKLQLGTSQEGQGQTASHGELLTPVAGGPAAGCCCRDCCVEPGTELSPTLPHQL
In short: as §1

[4] = target: T4, kinases of the scanMAX Kinase assay panel (Homo sapiens, UniProt Q00526); settings: CDK3; 1 uM
T4 construct: purchased DiscoverX Co. (contract measurement) scanMAX Kinase assay panel
T4 sequence (Q00526 whole entry): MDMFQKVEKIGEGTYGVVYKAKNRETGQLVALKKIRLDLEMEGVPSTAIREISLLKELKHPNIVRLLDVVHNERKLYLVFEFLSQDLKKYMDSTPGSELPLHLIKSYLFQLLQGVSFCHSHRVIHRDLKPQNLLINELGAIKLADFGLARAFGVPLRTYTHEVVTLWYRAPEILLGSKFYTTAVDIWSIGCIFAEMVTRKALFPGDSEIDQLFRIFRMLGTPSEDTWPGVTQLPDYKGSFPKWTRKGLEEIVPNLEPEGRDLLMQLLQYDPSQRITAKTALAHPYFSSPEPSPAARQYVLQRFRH
In short: as §1

SMILES	remaining binding at 1 µM [1]	remaining binding at 1 µM [2]	remaining binding at 1 µM [3]	remaining binding at 1 µM [4]
CCNc1nc(Nc2ccc(C(=O)N3CCC(N4CCOCC4)CC3)cc2OC)nc2[nH]cc(C(F)(F)F)c12 [Example 104, (4-((4-(ethylamino)-5-(trifluoromethyl)-7H-pyrrolo[2,3-d]pyrimidine-2-yl)amino)-3-methoxyphenyl)(4-morpholinopiperidine-1-yl)methanone]	87%	93%	72%	93%
CNc1nc(Nc2ccc(C(=O)N3CCOCC3)cc2OC)nc2[nH]cc(C#N)c12 [Example 1, 2-((2-methoxy-4-(morpholine-4-carbonyl)phenyl)amino)-4-(methylamino)-7H-pyrrolo[2,3-d]pyrimidine-5-carbonitrile]	78%	94%	59%	100%
CC1(Nc2nc(Nc3cnn([C@H]4CCN(C5COC5)C[C@@H]4F)c3Cl)nc3[nH]cc(C#N)c23)CC1 [Example 52, 2-((5-chloro-1-((3S,4S)-3-fluoro-1-(oxetane-3-yl)piperidine-4-yl)-1H-pyrazole-4-yl)amino)((1-methylcyclopropyl)amino)-7H-pyrrolo[2,3-d]pyrimidine-5-carbonitrile]	40%	80%	6.8%	76%
